Measurements from US12257247B2 (Monte Rosa Therapeutics AG, priority 2023, dated 2025).
Read-outs that look alike come from different tables or passages of the source.

Biological target: T1, VAV1 (Homo sapiens, UniProt P15498+Q96SW2)
T1 construct: A heterozygous VAV1 C-terminal HiBiT knock-in pool was generated at Monte Rosa Therapeutics from a clonal Jurkat cell; endogenous in cells; host or cells: Jurkat clone stably expressing LgBiT, homozygous GSPT1-G575N; heterozygous VAV1-HiBiT knock-in pool
Assay: VAV1 degradation activity, VAV1-HiBiT knock-in Jurkat luminescence assay (Example A, Table 1)
Assay type: cell-based
Conditions: VAV1-HiBiT knock-in Jurkat cells; for Dmax: Jurkat
Procedure, shortened: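 Luminescence was measured at 6 and 24 h after adding compound (10 μM stock) to VAV1-HiBiT knock-in Jurkat cells, which had been pre-incubated ~16 h at 37° C. in RPMI/10% FBS containing Endurazine. EC50 values came from control-normalised responses fitted to a 3-parameter logistic model with hillslope fixed at 1.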

[1] = luminescence read at 6 and 24 hours, read-out: VAV1 Dmax %
[2] = luminescence read at 6 and 24 hours, read-out: VAV1 Dmax %, class
[3] = luminescence read at 6 and 24 hours, read-out: VAV1 DC50
[4] = luminescence read at 6 and 24 hours, read-out: VAV1 DC50 (nM), class
[5] = luminescence read at 6 and 24 hours after compound addition, read-out: VAV1 Dmax %
[6] = luminescence read at 6 and 24 hours after compound addition, read-out: VAV1 Dmax %, class
[7] = luminescence read at 6 and 24 hours after compound addition, read-out: VAV1 DC50
[8] = luminescence read at 6 and 24 hours after compound addition, read-out: VAV1 DC50 (nM), class

O=C1CCC(c2c(F)ccc(-c3ccc(Cn4ccccc4=O)cc3)c2Cl)C(=O)N1 (centres unmarked) [Compound 143, 3-(2-chloro-4-fluoro-4′-((2-oxopyridin-1(2H)-yl)methyl)-[1,1′-biphenyl]-3-yl)piperidine-2,6-dione]
Dmax [1]: 55% | Dmax [2]: < 60% | DC50 [3]: 6160 nM | DC50 [4]: > 1000 nM

Cn1ccc(COc2ccc(-c3cc(C#N)cc(C4CCC(=O)NC4=O)c3Cl)cc2)n1 (centres unmarked) [Compound 157]
Dmax [1]: 20% | Dmax [2]: < 60% | DC50 [3]: ≥ 10000 nM | DC50 [4]: > 1000 nM

O=C1CCC(c2cccc(-c3ccc(C(=O)Nc4ccno4)cc3)c2Cl)C(=O)N1 (centres unmarked) [Compound 224, 2′-chloro-3′-(2,6-dioxopiperidin-3-yl)-N-(isoxazol-5-yl)-[1,1′-biphenyl]-4-carboxamide]
Dmax [1]: 51.5% | Dmax [2]: < 60% | DC50 [3]: 7800 nM | DC50 [4]: > 1000 nM

CN(C)CCOc1ccc(-c2cccc(C3CCC(=O)NC3=O)c2Cl)cc1 (centres unmarked) [Compound 135]
Dmax [1]: 34.9% | Dmax [2]: < 60% | DC50 [3]: ≥ 10000 nM | DC50 [4]: > 1000 nM

O=C1CC[C@@H](c2cccc(-c3ccc(Cn4ccccc4=O)cc3)c2Cl)C(=O)N1 [Compound 202, (S)-3-(2-chloro-4′-((2-oxopyridin-1(2H)-yl)methyl)-[1,1′-biphenyl]-3-yl)piperidine-2,6-dione]
Dmax [1]: 94.6% | Dmax [2]: > 90% | DC50 [3]: 14.6 nM | DC50 [4]: ≤ 100 nM

Cn1ccc(COc2ccc(-c3cccc(C4CCC(=O)NC4=O)c3Cl)cc2)n1 (centres unmarked) [Compound 154, 3-(2-chloro-4′-((1-methyl-1H-pyrazol-3-yl)methoxy)-[1,1′-biphenyl]-3-yl)piperidine-2,6-dione]
Dmax [1]: 97% | Dmax [2]: > 90% | DC50 [3]: 18.7 nM | DC50 [4]: ≤ 100 nM

O=C1CCC(c2cccc(-c3ccc(Cc4nccc(C5COC5)n4)cc3)c2Cl)C(=O)N1 (centres unmarked) [Compound 340, 3-(2-chloro-4′-((4-(oxetan-3-yl)pyrimidin-2-yl)methyl)-[1,1′-biphenyl]-3-yl)piperidine-2,6-dione]
Dmax [1]: 96.6% | Dmax [2]: > 90% | DC50 [3]: 5.86 nM | DC50 [4]: ≤ 100 nM

O=C1CCC(c2cccc(-c3ccc(CN4CCCC4=O)cc3)c2Cl)C(=O)N1 (centres unmarked) [Compound 206, 3-(2-chloro-4′-((2-oxopyrrolidin-1-yl)methyl)-[1,1′-biphenyl]-3-yl)piperidine-2,6-dione]
Dmax [1]: 87.5% | Dmax [2]: 60 to 90% | DC50 [3]: 42.7 nM | DC50 [4]: ≤ 100 nM

Cc1nn(C)c2c1N(c1ccc(-c3cccc(C4CCC(=O)NC4=O)c3Cl)cc1)C(=O)CO2 (centres unmarked) [Compound 333]
Dmax [1]: 98.2% | Dmax [2]: > 90% | DC50 [3]: 3.17 nM | DC50 [4]: ≤ 100 nM

O=C1CCC(c2cccc(-c3ccc(-n4cccc(F)c4=O)cc3)c2Cl)C(=O)N1 (centres unmarked) [Compound 218]
Dmax [1]: 96% | Dmax [2]: > 90% | DC50 [3]: 9.71 nM | DC50 [4]: ≤ 100 nM

CN1Cc2cc(-c3cccc(C4CCC(=O)NC4=O)c3Cl)ccc2N(Cc2ccn(C)n2)C1=O (centres unmarked) [Compound 503, 3-(2-chloro-3-(3-methyl-1-((1-methyl-1H-pyrazol-3-yl)methyl)-2-oxo-1,2,3,4-tetrahydroquinazolin-6-yl)phenyl)piperidine-2,6-dione]
Dmax [5]: 90% | Dmax [6]: 60 to 90% | DC50 [7]: 4.73 nM | DC50 [8]: ≤ 100 nM

O=C1CCC(c2cccc(-c3ccc(-c4cccn(CC(F)(F)F)c4=O)cc3)c2Cl)C(=O)N1 (centres unmarked) [Compound 458, 3-(2-chloro-4′-(2-oxo-1-(2,2,2-trifluoroethyl)-1,2-dihydropyridin-3-yl)-[1,1′-biphenyl]-3-yl)piperidine-2,6-dione]
Dmax [1]: 98.6% | Dmax [2]: > 90% | DC50 [3]: 4.79 nM | DC50 [4]: ≤ 100 nM

O=C1CCC(c2cccc(-c3ccc(N4CCCCC4=O)nc3)c2Cl)C(=O)N1 (centres unmarked) [Compound 450, 3-(2-chloro-3-(6-(2-oxopiperidin-1-yl)pyridin-3-yl)phenyl)piperidine-2,6-dione]
Dmax [1]: 75.9% | Dmax [2]: 60 to 90% | DC50 [3]: 173 nM | DC50 [4]: 100 to 1000 nM

O=C1CCC(c2cccc(-c3ccc4c(c3)OCCN4)c2Cl)C(=O)N1 (centres unmarked) [Compound 487, 3-(2-chloro-3-(3,4-dihydro-2H-benzo[b][1,4]oxazin-7-yl)phenyl)piperidine-2,6-dione]
Dmax [5]: 82.8% | Dmax [6]: 60 to 90% | DC50 [7]: 23.7 nM | DC50 [8]: ≤ 100 nM

O=C1CCC(c2cccc(-c3ccc(-n4ccccc4=O)cc3)c2F)C(=O)N1 (centres unmarked) [Compound 234, 3-(2-fluoro-4′-(2-oxopyridin-1(2H)-yl)-[1,1′-biphenyl]-3-yl)piperidine-2,6-dione]
Dmax [1]: 75.8% | Dmax [2]: 60 to 90% | DC50 [3]: 127 nM | DC50 [4]: 100 to 1000 nM

O=C1CCC(c2cccc(-c3cnc(N4CCCCC4=O)c(F)c3)c2Cl)C(=O)N1 (centres unmarked) [Compound 369, 3-(2-chloro-3-(5-fluoro-6-(2-oxopiperidin-1-yl)pyridin-3-yl)phenyl)piperidine-2,6-dione]
Dmax [1]: 69.5% | Dmax [2]: 60 to 90% | DC50 [3]: 331 nM | DC50 [4]: 100 to 1000 nM

O=C1CCC(c2cccc(-c3cnc(N4C(=O)CCC45CC5)c(F)c3)c2Cl)C(=O)N1 (centres unmarked) [Compound 364, 3-(2-chloro-3-(5-fluoro-6-(5-oxo-4-azaspiro[2.4]heptan-4-yl)pyridin-3-yl)phenyl)piperidine-2,6-dione]
Dmax [1]: 71.7% | Dmax [2]: 60 to 90% | DC50 [3]: 234 nM | DC50 [4]: 100 to 1000 nM

O=C1CCC(c2cccc(-c3ccc4[nH]ncc4c3)c2Cl)C(=O)N1 (centres unmarked) [Compound 485, 3-[2-chloro-3-(1H-indazol-5-yl)phenyl]piperidine-2,6-dione]
Dmax [5]: 89.7% | Dmax [6]: 60 to 90% | DC50 [7]: 41 nM | DC50 [8]: ≤ 100 nM

Cn1ccc(COc2ccc(-c3cccc(C4CCC(=O)NC4=O)c3Cl)c(Cl)c2)n1 (centres unmarked) [Compound 177, 3-(2,2′-dichloro-4′-((1-methyl-1H-pyrazol-3-yl)methoxy)-[1,1′-biphenyl]-3-yl)piperidine-2,6-dione]
Dmax [1]: 29.2% | Dmax [2]: < 60% | DC50 [3]: ≥ 10000 nM | DC50 [4]: > 1000 nM

O=C1CCC(c2cccc(-c3ccc(Cc4ncccn4)cc3)c2Cl)C(=O)N1 (centres unmarked) [Compound 208]
Dmax [1]: 97.2% | Dmax [2]: > 90% | DC50 [3]: 4.54 nM | DC50 [4]: ≤ 100 nM

CC1Cc2cc(-c3cccc(C4CCC(=O)NC4=O)c3Cl)ccc2N1 (centres unmarked) [Compound 500, 3-(2-chloro-3-(2-methylindolin-5-yl)phenyl)piperidine-2,6-dione]
Dmax [5]: 98.5% | Dmax [6]: > 90% | DC50 [7]: 7.51 nM | DC50 [8]: ≤ 100 nM

CN1CC(=O)N(c2ccc(-c3cccc(C4CCC(=O)NC4=O)c3Cl)cc2)c2cnccc21 (centres unmarked) [Compound 334]
Dmax [1]: 93.5% | Dmax [2]: > 90% | DC50 [3]: 11.1 nM | DC50 [4]: ≤ 100 nM

O=C1CCC(c2cccc(-c3ccc(Cc4ncco4)cc3)c2Cl)C(=O)N1 (centres unmarked) [Compound 472, 3-(2-chloro-4′-(oxazol-2-ylmethyl)-[1,1′-biphenyl]-3-yl)piperidine-2,6-dione]
Dmax [1]: 96.7% | Dmax [2]: > 90% | DC50 [3]: 8.25 nM | DC50 [4]: ≤ 100 nM

O=C1CCC(c2cccc(-c3cnc(Cn4ccccc4=O)c(F)c3)c2Cl)C(=O)N1 (centres unmarked) [Compound 412, 3-(2-chloro-3-(5-fluoro-6-((2-oxopyridin-1(2H)-yl)methyl)pyridin-3-yl)phenyl)piperidine-2,6-dione]
Dmax [1]: 67.3% | Dmax [2]: 60 to 90% | DC50 [3]: 418 nM | DC50 [4]: 100 to 1000 nM

O=C1CCC(c2cccc(-c3ccc(OCc4ccccn4)cc3)c2Cl)C(=O)N1 (centres unmarked) [Compound 103]
Dmax [1]: 93.6% | Dmax [2]: > 90% | DC50 [3]: 45.4 nM | DC50 [4]: ≤ 100 nM

O=C1CCC(c2cccc(-c3ccc(N4CC5CC5C4=O)cc3)c2Cl)C(=O)N1 (centres unmarked) [Compound 319]
Dmax [1]: 80.8% | Dmax [2]: 60 to 90% | DC50 [3]: 104 nM | DC50 [4]: 100 to 1000 nM

CC(Oc1ccc(-c2cccc(C3CCC(=O)NC3=O)c2Cl)cc1)c1ccn(C)n1 (centres unmarked) [Compound 173, 3-(2-chloro-4′-(1-(1-methyl-1H-pyrazol-3-yl)ethoxy)-[1,1′-biphenyl]-3-yl)piperidine-2,6-dione]
Dmax [1]: 88.1% | Dmax [2]: 60 to 90% | DC50 [3]: 40.2 nM | DC50 [4]: ≤ 100 nM

CC1(C)CCC(=O)N(Cc2ccc(-c3cccc(C4CCC(=O)NC4=O)c3Cl)cc2)C1 (centres unmarked) [Compound 284]
Dmax [1]: 98% | Dmax [2]: > 90% | DC50 [3]: 3.48 nM | DC50 [4]: ≤ 100 nM

O=C1CCC(c2cccc(-c3ccc(N4CC(C(F)(F)F)OCC4=O)cc3)c2Cl)C(=O)N1 (centres unmarked) [Compound 306]
Dmax [1]: 89.1% | Dmax [2]: 60 to 90% | DC50 [3]: 49.2 nM | DC50 [4]: ≤ 100 nM

Cc1cc(C)n(Cc2ccc(-c3cccc(C4CCC(=O)NC4=O)c3Cl)cc2)n1 (centres unmarked) [Compound 127]
Dmax [1]: 92.4% | Dmax [2]: > 90% | DC50 [3]: 39 nM | DC50 [4]: ≤ 100 nM

O=C1CCC(c2cccc(-c3ccc(CN4CC(C(F)(F)F)OCC4=O)cc3)c2Cl)C(=O)N1 (centres unmarked) [Compound 258]
Dmax [1]: 94.5% | Dmax [2]: > 90% | DC50 [3]: 12.6 nM | DC50 [4]: ≤ 100 nM

Nc1ncn(Cc2ccc(-c3cccc(C4CCC(=O)NC4=O)c3Cl)cc2)n1 (centres unmarked) [Compound 110]
Dmax [1]: 89.2% | Dmax [2]: 60 to 90% | DC50 [3]: 22.3 nM | DC50 [4]: ≤ 100 nM
